For data set [1] the following is noted: acidic pKa; cited from earlier work.
The conditions of data set [2]: pH 7.0 and 20° C.; cited from earlier work.
The conditions of data set [3]: cited from earlier work.
Data set [4] has as its system PGE2. The data set is described as follows: PGE2 anti-inflammation assay in-vitro. Format: cell-based. As to conditions: compared to niacinamide.

Read-outs that look alike come from different tables or passages of the source.

In the case of `O=C([O-])C=Cc1ccccc1.[Na+]` [Sodium Cinnamate], the pKa in data set [1] is reported as 4.32.

For the compound `O=C(O)C=Cc1ccccc1` [cinnamic acid], in data set [1], the pKa is recorded as 4.32.

For the compound `O=C(O)/C=C/c1ccc(O)cc1` [p-coumaric acid], the solubility in water result in data set [2] was “approximately 345 mg/mL”. The conjugate base form result in data set [3] (pH 3) is “approximately 13.4%”; in data set [3] (pH 7), “approximately 99.6%”.

Methyl niacinamide: the “efficacy in PGE2 anti-inflammation assay” value in data set [4] is “equivalent and/or improved efficacy to niacinamide”.

Broadly, the pKa is the negative logarithm of the acid dissociation constant.
